Reference: patent publication US11845990B2, “Prediction of sleep parameter and response to sleep-inducing compound based on PER3 VNTR genotype” (Vanda Pharmaceuticals Inc., priority 2007, dated 2023)

What was measured:
[1] = Solubility and pH of saturated solution; assay type: physicochemical
[2] = system: healthy volunteers; assay: Previous tolerability studies in healthy volunteers; assay type: in vivo
[3] = system: healthy male and female subjects with induced transient insomnia; assay: Induced transient insomnia clinical study (first night effect plus 5-hour phase advance), polysomnography, by PER3 VNTR genotype; assay type: in vivo, human; set-up: greater sleep efficiency over subjects on placebo (full night) / lower sleep efficiency than subjects on placebo (full night) / sleep efficiency higher than in placebo, first third of the night / sleep efficiency higher than in placebo, second third of the night / sleep efficiency lower than in placebo, first third of the night / sleep efficiency lower than in placebo, second third of the night: concentration or dose not given beside the values
From the text: The effect of this polymorphism was investigated with respect to various sleep parameters (latency to persistent sleep, wake after sleep onset, sleep efficiency), which evaluated objectively by polysomnography in healthy subjects treated with (1R-trans)-N-[[2-(2,3-dihydro-4-benzofuranyl)cyclopropyl]methyl]propanamide, or treated with a placebo, in a clinical protocol that models transient insomnia.
Transient insomnia can be induced in a laboratory setting as a result of a “first night effect” in which sleep onset and sleep maintenance are disrupted in normal sleeping adults by sleeping in an unfamiliar surrounding. This model of transient insomnia has been validated in several studies of normal sleeping adults. Insomnia can also be precipitated by other factors such as traveling across multiple time zones (jet lag). This condition can be reproduced in a sleep laboratory by forcing an earlier bedtime (phase advance). The study reported here used both, the first night effect and a 5-hour phase advance component, to increase the likelihood that transient insomnia will be induced. A multi-center, randomized, double-blind, placebo-controlled, parallel study was conducted to investigate the efficacy and safety of a single oral dose of (1R-trans)-N-[[2-(2,3-dihydro-4-benzofuranyl)cyclopropyl]methyl]propanamide (20 mg, 50 mg, and 100 mg) and matching placebo in healthy male and female subjects with induced transient insomnia. […] Latency to Persistent Sleep (LPS), Wake After Sleep Onset (WASO) and sleep efficiency (SE) were evaluated objectively by use of polysomnography.
More than 70% of subjects who enrolled in the clinical trial consented to the optional PG study. From those, 288 were genotyped for the PER3 VNTR polymorphism.

For `CCC(=O)NC[C@@H]1C[C@H]1c1cccc2c1CCO2` [(1R-trans)-N-[[2-(2,3-dihydro-4-benzofuranyl)cyclopropyl]methyl]propanamide], which “solubility in organic solvents” value ([1]; 95% ethanol, methanol, acetonitrile, ethyl acetate, isopropanol, polyethylene glycols (PEG-300 and PEG-400)) is on record?
Its value is “very soluble or freely soluble”.

What about the “native pH of a saturated solution in water” value ([1]; saturated solution in water) of the same compound?
Its value is 8.5.

And the “effect of pH on aqueous solubility” value ([1]; water)?
Its value is “practically unaffected by pH”.

What about the solubility in water ([1]; water) of the same compound?
Its solubility in water is “only slightly soluble”.

What about the “tolerability, multiple doses” value ([2]; multiple doses (up to 28 days) up to 150 mg) of the same compound?
The value was “well-tolerated”.

What about the “tolerability, single doses” value ([2]; single doses up to 300 mg) of the same compound?
Its value is “well-tolerated”.

And the “shorter LPS period than with placebo” value ([3]; PER3 4/4 and 4/5 genotypes)?
The value was 30 min.

And the “shorter LPS period than with placebo (percent)” value ([3]; PER3 4/4 and 4/5 genotypes)?
Its value is 56%.

And the “smaller WASO than with placebo” value ([3]; PER3 4/4 and 4/5 genotypes)?
The value was 21 min.

And the “smaller WASO than with placebo (percent)” value ([3]; PER3 4/4 and 4/5 genotypes)?
The value was 16%.

What about the “sleep efficiency higher than in placebo, first third of the night” value ([3]; PER3 4/4 and 4/5 genotypes, first third of night) of the same compound?
The value was 29%.

And the “greater sleep efficiency over subjects on placebo (full night)” value ([3]; PER3 4/4 and 4/5 genotypes, full night)?
Its value is 12%.

What about the “sleep efficiency higher than in placebo, second third of the night” value ([3]; PER3 4/4 and 4/5 genotypes, second third of night) of the same compound?
The value was 22.8%.

And the “longer WASO than with placebo” value ([3]; PER3 5/5 genotype)?
Its value is 32 min.

What about the “longer WASO than with placebo (percent)” value ([3]; PER3 5/5 genotype) of the same compound?
Its value is 32.7%.

And the “shorter LPS than with placebo” value ([3]; PER3 5/5 genotype)?
Its value is 8 min.

What about the “shorter LPS than with placebo (percent)” value ([3]; PER3 5/5 genotype) of the same compound?
Its value is 27%.

And the “sleep efficiency lower than in placebo, first third of the night” value ([3]; PER3 5/5 genotype, first third of night)?
Its value is 7.2%.

What about the “lower sleep efficiency than subjects on placebo (full night)” value ([3]; PER3 5/5 genotype, full night) of the same compound?
Its value is 9.5%.

What about the “sleep efficiency lower than in placebo, second third of the night” value ([3]; PER3 5/5 genotype, second third of night) of the same compound?
Its value is 3.4%.

What about the “efficacy in improving LPS, WASO, and Sleep Efficiency” value ([3]; single oral dose 20, 50 or 100 mg, induced transient insomnia, vs placebo) of the same compound?
The value was “efficacious”.

What about the “sleep efficiency improvement in the third part of the night” value ([3]; third third of night, vs placebo) of the same compound?
The value was “no improvement”.
